In US8575197B2, “Pyrolinone derivative and pharmaceutical composition comprising the same” (Shionogi & Co., Ltd., priority 2008, dated 2013) one finds IC50 data, which are given here for 52 compounds.

What is called IC50 is the concentration that gives 50% inhibition.

Each structure is given as a SMILES string.

For this test, the target named is human P2X3 receptor (Homo sapiens (Human), UniProt P56373). Description: P2X3 receptor inhibition, ATP-evoked Fluo-3 calcium fluorescence (FDSS 3000). The settings on record: C6BU-1 cell transfected with human P2X3 receptor gene; ATP-evoked Fluo-3 fluorescence. It counts as cell-based. In short, it runs like this: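 C6BU-1 cells stably transfected with human P2X3, loaded with 4 μM Fluo-3-AM for 1 h at 37 °C in HEPES buffer pH 7.5 with probenecid. Compound added 5 min before 40 nM ATP solution; fluorescence followed 3 min. IC50 from ratio of peak post-ATP to baseline fluorescence.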
Chain of human P2X3 receptor (P56373 whole entry): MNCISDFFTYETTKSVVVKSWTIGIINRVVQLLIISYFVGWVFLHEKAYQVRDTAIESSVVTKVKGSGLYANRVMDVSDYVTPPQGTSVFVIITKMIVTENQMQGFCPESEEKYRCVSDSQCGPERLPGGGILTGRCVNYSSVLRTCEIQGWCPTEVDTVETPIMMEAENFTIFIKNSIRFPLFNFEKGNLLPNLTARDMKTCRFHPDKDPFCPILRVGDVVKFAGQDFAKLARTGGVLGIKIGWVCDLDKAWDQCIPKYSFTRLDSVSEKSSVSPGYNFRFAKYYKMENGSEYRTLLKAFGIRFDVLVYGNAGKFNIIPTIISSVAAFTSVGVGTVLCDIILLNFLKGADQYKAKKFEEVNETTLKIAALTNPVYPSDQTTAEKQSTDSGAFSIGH
Consider `COc1ncccc1C1c2c(C(C)(C)C)n[nH]c2C(=O)N1c1ccc(SC)cc1` (stereo not shown) [II-007], for which the IC50 was found to be 62 nM.

In the case of `COc1ccccc1C1c2c(C(C)(C)CO)n[nH]c2C(=O)N1c1ccc(SC)cc1` (stereo not shown) [II-009], the IC50 stood at 54 nM.

In the case of `COc1ccccc1C1c2c(C(C)(C)COC(C)=O)n[nH]c2C(=O)N1c1ccc(SC)cc1` (stereo not shown) [II-010], the IC50 is 134 nM.

Take `COc1ccccc1C1c2c(C(C)(C)CO)n[nH]c2C(=O)N1c1ccc(N(C)C)cc1` (stereo not shown) [II-011]: the IC50 was determined as 319 nM.

With `CC(C)(C)c1n[nH]c2c1C(c1ccccc1OCCO)N(c1ccc(-c3cccs3)cc1)C2=O` (stereo not shown) [II-012], the IC50 is 4 nM.

Regarding `CSc1ccc(N2C(=O)c3[nH]nc(C(C)(C)C)c3C2c2ccccc2OCCO)cc1` (stereo not shown) [II-013], the IC50 was 19 nM.

Regarding `CC(C)(C)c1n[nH]c2c1C(c1ccccc1OCCO)N(c1ccc(-c3nccs3)cc1)C2=O` (stereo not shown) [II-014], the IC50 was determined as 17 nM.

Take `Cc1cc(-c2ccc(N3C(=O)c4[nH]nc(C(C)(C)C)c4C3c3ccccc3OCCO)cc2)on1` (stereo not shown) [II-015]: the IC50 amounted to 87 nM.

Turning to `Cc1noc(-c2ccc(N3C(=O)c4[nH]nc(C(C)(C)C)c4C3c3ccccc3OCCO)cc2)n1` (stereo not shown) [II-016], the IC50 was found to be 158 nM.

For `Cc1nc(-c2ccc(N3C(=O)c4[nH]nc(C(C)(C)C)c4C3c3ccccc3OCCO)cc2)no1` (stereo not shown) [II-017], the IC50 turned out to be 54 nM.

For the compound `COCCOc1ccccc1C1c2c(C(C)(C)C)n[nH]c2C(=O)N1c1ccc(-c2ccon2)cc1` (stereo not shown) [II-018], the IC50 amounted to 22 nM.

Take `CC(C)Oc1ccccc1C1c2c(C(C)(C)C)n[nH]c2C(=O)N1c1ccc(-c2ccon2)cc1` (stereo not shown) [II-019]: the IC50 is 21 nM.

In the case of `COC(=O)COc1ccccc1C1c2c(C(C)(C)C)n[nH]c2C(=O)N1c1ccc(-c2ccsc2)cc1` (stereo not shown) [II-020], the IC50 was determined as 8 nM.

Take `COC(=O)COc1ccccc1C1c2c(C(C)(C)C)n[nH]c2C(=O)N1c1ccc(-c2cccs2)cc1` (stereo not shown) [II-021]: the IC50 stood at 9 nM.

Turning to `CC(C)(C)c1n[nH]c2c1C(c1ccccc1OCC(=O)O)N(c1ccc(-c3cccs3)cc1)C2=O` (stereo not shown) [II-022], the IC50 stood at 4 nM.

In the case of `CC(C)(C)c1n[nH]c2c1C(c1ccccc1OCC(=O)O)N(c1ccc(-c3ccsc3)cc1)C2=O` (stereo not shown) [II-023], the IC50 was determined as 4 nM.

As to `COCCOc1ccccc1C1c2c(C(C)(C)C)n[nH]c2C(=O)N1c1ccc(-c2nc(C)no2)cc1` (stereo not shown) [II-024], the IC50 came out at 62 nM.

For the compound `COCCOc1ccccc1C1c2c(C(C)(C)C)n[nH]c2C(=O)N1c1ccc(-c2noc(C)n2)cc1` (stereo not shown) [II-025], the half-maximal inhibitory concentration (IC50) was 15 nM.

As to `COCCOc1ccccc1C1c2c(C(C)(C)C)n[nH]c2C(=O)N1c1ccc(SC)cc1` (stereo not shown) [II-026], the IC50 amounted to 23 nM.

`COCCOc1ccccc1C1c2c(C(C)(C)C)n[nH]c2C(=O)N1c1ccc(-c2ccco2)cc1` (stereo not shown) [II-027]: the IC50 came to 8 nM.

As for `COC(=O)COc1ccccc1C1c2c(C(C)(C)C)n[nH]c2C(=O)N1c1ccc(-c2ccon2)cc1` (stereo not shown) [II-028], the IC50 was determined as 14 nM.

`CC(C)(C)c1n[nH]c2c1C(c1ccccc1OCC(=O)O)N(c1ccc(-c3ccon3)cc1)C2=O` (stereo not shown) [II-029]: the IC50 worked out at 90 nM.

On to `CN(C)CCOc1ccccc1C1c2c(C(C)(C)C)n[nH]c2C(=O)N1c1ccc(-c2ccon2)cc1` (stereo not shown) [II-030], for which the IC50 was determined as 128 nM.

As to `CN(C)CCOc1ccccc1C1c2c(C(C)(C)C)n[nH]c2C(=O)N1c1ccc(-c2ccsc2)cc1` (stereo not shown) [II-031], the IC50 was 18 nM.

`COCCOc1ncccc1C1c2c(C(C)(C)C)n[nH]c2C(=O)N1c1ccc(-c2ccsc2)cc1` (stereo not shown) [II-032]: the IC50 stood at 6 nM.

Consider `COCCOc1ncccc1C1c2c(C(C)(C)C)n[nH]c2C(=O)N1c1ccc(-c2ccon2)cc1` (stereo not shown) [II-033], for which the 50% inhibitory concentration (IC50) amounted to 117 nM.

As for `COCCOc1ncccc1C1c2c(C(C)(C)C)n[nH]c2C(=O)N1c1ccc(SC)cc1` (stereo not shown) [II-034], the IC50 turned out to be 46 nM.

On to `COCCOc1ncccc1C1c2c(C(C)(C)C)n[nH]c2C(=O)N1c1ccc(-c2cccs2)cc1` (stereo not shown) [II-035], for which the IC50 stood at 6 nM.

Turning to `CC(C)(C)c1n[nH]c2c1C(c1cccnc1OCCO)N(c1ccc(-c3ccon3)cc1)C2=O` (stereo not shown) [II-036], the IC50 is 231 nM.

Turning to `COCCOc1ncccc1C1c2c(C(C)(C)C)n[nH]c2C(=O)N1c1ccc(-c2ccco2)cc1` (stereo not shown) [II-037], the IC50 was 8 nM.

With `COCCOc1ncccc1C1c2c(C(C)(C)C)n[nH]c2C(=O)N1c1ccc(-c2ccoc2)cc1` (stereo not shown) [II-038], the concentration for half-maximal inhibition (IC50) was 14 nM.

Take `CC(C)(C)c1n[nH]c2c1C(c1cccnc1OCCO)N(c1ccc(-c3ccsc3)cc1)C2=O` (stereo not shown) [II-039]: the IC50 was determined as 5 nM.

Consider `CSc1ccc(N2C(=O)c3[nH]nc(C(C)(C)C)c3C2c2cccnc2OCCO)cc1` (stereo not shown) [II-040], for which the IC50 was determined as 70 nM.

`CC(C)(C)c1n[nH]c2c1C(c1cccnc1OCCO)N(c1ccc(-c3ccoc3)cc1)C2=O` (stereo not shown) [II-041]: the IC50 stood at 27 nM.

Consider `CC(C)(C)c1n[nH]c2c1C(c1cccnc1OCCO)N(c1ccc(-c3cccs3)cc1)C2=O` (stereo not shown) [II-042], for which the half-inhibitory concentration (IC50) was 10 nM.

Regarding `CC(C)(C)c1n[nH]c2c1C(c1cccnc1OCCO)N(c1ccc(-c3ccco3)cc1)C2=O` (stereo not shown) [II-043], the half-maximal inhibitory concentration (IC50) is 17 nM.

Consider `CC(C)c1n[nH]c2c1C(c1cccnc1OCCO)N(c1ccc(-c3ccon3)cc1)C2=O` (stereo not shown) [II-044], for which the IC50 came to 582 nM.

For the compound `CC(C)c1n[nH]c2c1C(c1cccnc1OCCO)N(c1ccc(-c3ccsc3)cc1)C2=O` (stereo not shown) [II-045], the IC50 worked out at 16 nM.

Regarding `Cc1nc(-c2ccc(N3C(=O)c4[nH]nc(C(C)C)c4C3c3cccnc3OCCO)cc2)no1` (stereo not shown) [II-046], the IC50 was 861 nM.

With `CC(C)c1n[nH]c2c1C(c1ccccc1OCC(=O)O)N(c1ccc(-c3ccsc3)cc1)C2=O` (stereo not shown) [II-047], the half-maximal inhibitory concentration (IC50) amounted to 11 nM.

As for `COc1ncccc1C1c2c(C(C)C)n[nH]c2C(=O)N1c1ccc(-c2ccsc2)cc1` (stereo not shown) [II-048], the IC50 amounted to 57 nM.

For the compound `CNC(=O)COc1ccccc1C1c2c(C(C)C)n[nH]c2C(=O)N1c1ccc(-c2ccsc2)cc1` (stereo not shown) [II-049], the IC50 was 11 nM.

On to `CC(C)c1n[nH]c2c1C(c1ccccc1OCC(N)=O)N(c1ccc(-c3ccsc3)cc1)C2=O` (stereo not shown) [II-050], for which the half-inhibitory concentration (IC50) came out at 7 nM.

For the compound `CC(C)c1n[nH]c2c1C(c1ccccc1OCC(=O)NN)N(c1ccc(-c3ccsc3)cc1)C2=O` (stereo not shown) [II-051], the 50% inhibitory concentration (IC50) came out at 5 nM.

For `CC(C)c1n[nH]c2c1C(c1cccnc1OCC(=O)O)N(c1ccc(-c3ccsc3)cc1)C2=O` (stereo not shown) [II-052], the IC50 was determined as 33 nM.

Take `CNC(=O)COc1ncccc1C1c2c(C(C)C)n[nH]c2C(=O)N1c1ccc(-c2ccsc2)cc1` (stereo not shown) [II-053]: the IC50 stood at 35 nM.

With `CC(C)c1n[nH]c2c1C(c1cccnc1OCC(N)=O)N(c1ccc(-c3ccsc3)cc1)C2=O` (stereo not shown) [II-054], the half-maximal inhibitory concentration (IC50) came to 26 nM.

Regarding `COc1ccc(-c2n[nH]c3c2C(C2CCCCC2)N(c2ccc4[nH]ccc4c2)C3=O)cc1` (stereo not shown) [II-055], the IC50 is 548 nM.

Regarding `CCOC(=O)c1ccc(N2C(=O)c3[nH]nc(C(C)(C)C)c3C2c2ccccc2OC)cc1` (stereo not shown) [II-057], the half-maximal inhibitory concentration (IC50) stood at 17 nM.

As for `CC(C)(C)c1n[nH]c2c1C(c1cccc[n+]1[O-])N(c1ccc(-c3ccon3)cc1)C2=O` (stereo not shown) [II-058], the half-maximal inhibitory concentration (IC50) stood at 494 nM.

Turning to `COc1cc(F)ccc1C1c2c(C(C)(C)C)n[nH]c2C(=O)N1c1ccc(-c2ccon2)cc1` (stereo not shown) [II-059], the half-maximal inhibitory concentration (IC50) was found to be 46 nM.

In the case of `COc1cccc(OC)c1C1c2c(C(C)(C)C)n[nH]c2C(=O)N1c1ccc(-c2ccon2)cc1` (stereo not shown) [II-060], the IC50 is 538 nM.
